Data on twelve molecules can be found in patent US11718864B2, “Cells and method of cell culture” (PFIZER INC., priority 2015, dated 2023).

Holding throughout (type): cell-based, Chinese hamster
For data set [1], the system named is GS-CHO cells (Cell line A). Nature of the data set: Growth (viable cell density) of GS-CHO cells in Medium A spiked with putative inhibitor metabolites. As to conditions: single metabolite. On the procedure: GS-CHO cells producing a recombinant antibody were inoculated at low viable cell densities (0.1E6 cells/mL) in various conditions in 5 ml volume, 6-well plate cultures. […] The pH of the Medium A, spiked-in with any one of the nine metabolites or any combination of the nine metabolites, was adjusted to 7 before inoculating the cells (on day 0).
For indolelactate, the stock solution (500 mM) was prepared in DMSO. […] All the conditions were run in duplicates or triplicates. Growth of the cells in above described conditions was monitored for 5 or 6 days.

The next data set deals with CHO cell line A. Nature of the data set: Growth of CHO cell line A in Medium A supplemented with 2-methylbutyrate or isobutyrate. As to conditions: at concentrations higher than 1 mM; monitored 5 days. As for the experimental part:
CHO cell line A producing a recombinant antibody were inoculated at low cell densities (0.1E6 cells/mL) in various conditions in triplicates in 6-well plate cultures. The working volume for each well on day 0 was 4 mL. […] The 6-well plates were incubated on a shaking platform in 36.5 C and 5% carbon dioxide. Cell growth in all the conditions was monitored for 5 days.

The next data set deals with BCAT1. Put plainly: Western blot of BCAT1 protein after transient miRNA transfection, CHO parental cell line. To be noted: CHO parental cell line transient transfections, vs untransfected and negative control miRNA. As for the experimental part:
miRNA knockdown works by expressing small RNA sequences (approximately 20-25 bases) that are complimentary to a target gene sequence (e.g. BCAT1). The miRNA binds to the messenger RNA (mRNA) of the target gene forming a region of double stranded RNA. […] Micro RNA knockdown of BCAT1 was performed using the BLOCK-iT Inducible Pol II miR RNAi Expression Vector Kit with EmGFP (Invitrogen). Five miRNA oligonucleotide pairs (complementary top and bottom strand of BCAT1) were designed using an online tool called Block-iT RNAi Designer and the DNA oligonucleotides were prepared by Integrated DNA technologies. The oligonucleotide pairs were annealed and ligated into the pcDNA™6.2-GW/EmGFP-miR vector. The vectors (five of them) were sequence confirmed by WyzerBiosciences (Cambridge, Mass.). The five miRNA vectors or a negative control vector named pcDNA™6.2-GW/EmGFP-miR-neg (provided by Invitrogen with the kit) were transfected into CHO parental cell line or CHO cell line B using the GenePulser XCell eletroporator (BioRad) and were left to recover for two days. After two days, cells were either subjected to selection pressure by antibiotic (blasticidin, 10 ug/mL) for generation of stable cell pools (see Example 24), or cell lysates from the transfected cells (or untransfected cells) were prepared in M-PER protein extraction reagent (Thermo Fisher) supplemented with cOmplete, Mini, EDTA-free Protease Inhibitor Cocktail (Roche). The samples were analyzed by western blot using the Novex NuPage system (Thermo Fisher). The system provides polyacrylamide gels, sample loading buffer, sample reductant, gel running buffer, protein mass standard, nitrocellulose membrane, and chemiluminescence detection reagent. The blots were probed with a rabbit polyclonal anti-BCAT1 antibody (AbCam, Cat#ab110761) or a B-Actin antibody (AbCam, Cat#ab8227). The western blots were imaged using a BioRad ChemiDoc system and analyzed for levels of B-actin and BCAT1.
(In western blotting, separated proteins are transferred to a membrane and probed.)

Setting [2] is: at concentrations higher than 0.5 mM or 1 mM.

Consider `O=C(O)C(O)Cc1ccc(O)cc1` (stereo not drawn) [3-(4-hydroxyphenyl)lactate], for which the “effect on growth of cells” value in data set [1] (setting [2]) is given as “Modest inhibition of growth”. With `O=CO` [Formate], in data set [1] (at concentrations 2 mM and beyond), the “effect on growth of cells” value is on record as “negative effect on growth”. For `O=C(O)C(O)Cc1c[nH]c2ccccc12` (stereo not drawn) [Indolelactate], in data set [1] (at concentrations of 3 mM or below, DMSO controls), the “effect on growth of cells” value is reported as “little or no effect on growth”. Regarding `CC(C)C(=O)O` [isobutyrate], the cell growth entry with CHO cell line A was “suppressed”. With “miRNA Seq 5.1a: BCAT1 miRNA sequence CTTGGGCAAACTGACTGATAT expressed from pcDNA6.2-GW/EmGFP-miR vector (listed as Cricetulus griseus)”, the “BCAT1 protein level (western blot)” value in the data set with BCAT1 is “lower level of BCAT1 protein”.

Take `O=C(O)[C@H](O)Cc1ccccc1` [L-phenyllactate]: in data set [1] (at 1 mM concentration), the “effect on growth of cells” value is reported as “mild effect on growth”. In the case of “miRNA Seq 3.1a: BCAT1 miRNA sequence AGTGGGCACGATGAATCTGTT expressed from pcDNA6.2-GW/EmGFP-miR vector (listed as Cricetulus griseus)”, in the data set on BCAT1, the “BCAT1 protein level (western blot)” value was “lower level of BCAT1 protein”.

Regarding `O=C(O)c1c[nH]c2ccccc12` [Indolecarboxylic acid], the “effect on growth of cells” value in data set [1] (at concentrations of 1 mM or lower, growth monitored 5 or 6 days) is “potent negative effect on growth”.

As for “miRNA Seq 2.1a: BCAT1 miRNA sequence TCTGCTGTGAGGACCACTTTG expressed from pcDNA6.2-GW/EmGFP-miR vector (listed as Cricetulus griseus)”, the “BCAT1 protein level (western blot)” value with BCAT1 is recorded as “lower level of BCAT1 protein”. Regarding “miRNA Seq 4.1a: BCAT1 miRNA sequence CACGATGAATCTGTTCCTCTA expressed from pcDNA6.2-GW/EmGFP-miR vector (listed as Cricetulus griseus)”, the “BCAT1 protein level (western blot)” value with BCAT1 is “lower level of BCAT1 protein”.

Take `CCC(O)C(=O)O` (stereo not drawn) [2-hydroxybutyric acid]: the “effect on growth of cells” value in data set [1] (setting [2]) is listed as “Modest inhibition of growth”. Take `N[C@@H](CCS)C(=O)O` [homocysteine]: the “effect on growth of cells” value in data set [1] (setting [2]) is “Modest inhibition of growth”.
